Measurements from BigSolDB 2.1.

CCOC(=O)c1ccc(O)cc1
solubility (mole fraction)
Details	278.15 K	283.15 K	288.15 K	293.15 K	298.15 K	303.15 K	308.15 K	313.15 K	318.15 K
in acetonitrile	0.0703	0.0822	0.0995	0.121	0.148	0.178	0.214	0.252	0.293
in water	2.62e-05	3.64e-05	5.25e-05	7.52e-05	9.7e-05	0.000119	0.000145	0.000169	0.000192
